These results are taken from patent publication US20050137215A1, “[C]-fused bicyclic proline derivatives and their use for treating arthritic conditions” (priority 2003, published 2005).

Counter-ions that a name gives are not always drawn.

In data set [1] the test system is Monosodium Iodoacetate-Induced Osteoarthritis in Rat Model of Joint Cartilage Damage. As to the kind of experiment: Monosodium iodoacetate-induced osteoarthritis in rat (MIA Rat), loss of hind limb joint function. In kind it is in vivo. The note with it: male Wistar rats, MIA 1 mg/joint, 10 mg/kg/day subcutaneously via osmotic pump. The source says:
Monosodium Iodoacetate-Induced Osteoarthritis in Rat Model of Joint Cartilage Damage (“MIA Rat”):
One end result of the induction of osteoarthritis in this model, as determined by histologic analysis, is the development of an osteoarthritic condition within the affected joint, as characterized by the loss of Toluidine blue staining and formation of osteophytes. Associated with the histologic changes is a concentration-dependent degradation of joint cartilage, as evidenced by affects on hind-paw weight distribution of the limb containing the affected joint, the presence of increased amounts of proteoglycan or hydroxyproline in the joint upon biochemical analysis, or histopathological analysis of the osteoarthritic lesions.
The invention compounds typically are not effective for relieving joint pain when administered in an acute model, such as the instant MIA Rat model, which has a duration of just 14 or 28 days.
Generally, In the MIA Rat model on Day 0, the hind-paw weight differential between the right arthritic joint and the left healthy joint of male Wistar rats (150 g) are determined with an incapacitance tester, model 2KG (Linton Instrumentation, Norfolk, United Kingdom). The incapacitance tester has a chamber on top with an outwardly sloping front wall that supports a rat's front limbs, and two weight sensing pads, one for each hind paw, that facilitates this determination. Then the rats are anesthetized with isofluorine, and the right, hind leg knee joint is injected with 1.0 mg of mono-iodoacetate (“MIA”) through the infrapatellar ligament. Injection of MIA into the joint results in the inhibition of glycolysis and eventual death of surrounding chondrocytes. The rats are further administered either an invention compound or vehicle (in the instant case, water) daily for 14 days or 28 days.
The invention compound is typically administered at a dose of 30 mg of per kilogram of rat per day (30 mg/kg/day), but may be administered at other doses such as, for example, 10 mg/kg/day, 60 mg/kg/day, 90-mg/kg/day, or 100 mg/kg/day according to the requirements of the invention compound being studied. It is well within the level of ordinary skill in the pharmaceutical arts to determine a proper dosage of an invention compound in this model.
Administration of an invention compound in this model is optionally by oral administration or by intravenous administration via an osmotic pump. After 7 and 14 days for a two week study, or 7, 14, and 28 days for a four week study, the hind-paw weight distribution is again determined. Typically, the animals administered vehicle alone place greater weight on their unaffected left hind paw than on their right hind paw, while animals administered an invention compound show a more normal (i.e., more like a healthy animal) weight distribution between their hind paws. This change in weight distribution was proportional to the degree of joint cartilage damage. Percent inhibition of a change in hind paw joint function is calculated as the percent change in hind-paw weight distribution for treated animals versus control animals. For example, for a two week study, [formula] wherein: ΔWC is the hind-paw weight differential between the healthy left limb and the arthritic limb of the control animal administered vehicle alone, as measured on Day 14; and • ΔWG is the hind-paw weight differential between the healthy left limb and the arthritic limb of the animal administered an invention compound as measured on Day 14.
Administration via osmotic pump is preferable for screening compounds. In a particular experiment, monosodium iodoacetate (“MIA”) (1 mg/joint) was injected through the infrapatellar ligament of the right knee of anesthetized male, Wistar rats. The contralateral control knee was injected with 50 μL of physiologic saline. […]

Data set [2] deals with alpha-2-delta receptor 2 (UniProt A0A8W4FF87). As to the kind of experiment: [3H]Gabapentin A2DR2 binding assay. Set-up: species or system pig. To be noted: Biological Method 4; read-out: A2DR2 IC50, displacement of [3H]-gabapentin. The source says: (§1) [^3H]Gabapentin A2DR1 and A2DR2 Binding Assays (“A2DR1” and “A2DR2”, Respectively)
(§2) HEK 293 recombinant cells expressing A2DR1 or A2DR2 protein are harvested and washed in phosphate buffered saline (“PBS”). The cells are centrifuged and resuspended in tris(hydroxymethyl)aminomethane-ethylenediaminetetraacetic acid (“Tris-EDTA” or “TE”) buffer containing Roche Complete Protease Inhibitor Cocktail. The cells are homogenized, centrifuged at 3000×g, and the supernatant centrifuged again at 50,000×g. The resulting pellet is resuspended and homogenized in TE. Following determination of A2DR1 or A2DR2 protein concentration, aliquots are stored at −70° C. until the day of testing (membrane preparation may be used for at least 6 months).
(§3) In one version, the binding assay is set up in a 96-well format using deep-well polypropylene plates. […] Non-specific binding for each plate is determined by the addition of 10 μM of pregabalin instead of test compound in a few of the 96 wells. […] The mats are placed into plastic pouches, scintillation cocktail is added, the pouches are sealed, and radioactivity for each sample is counted.
Specific binding values for each concentration are transformed and then analyzed by a 4-parameter nonlinear regression equation provided by Prism graphics software by Graph Pad to determine IC50 values by conventional means. […]
(Loss of bound radioactivity is the signal in a displacement assay; it reports binding, not function.)

Data set [3] concerns the target alpha-2-delta receptor 1 (Sus scrofa, UniProt A0A287BIN3). As to the kind of experiment: [3H]Gabapentin A2DR1 binding assay. More on the design: species or system pig. To be noted: Biological Method 4; read-out: A2DR1 IC50, displacement of [3H]-gabapentin.
From the text: as §1, §2, §3
(§4) Specific binding values for each concentration are transformed and then analyzed by a 4-parameter nonlinear regression equation provided by Prism graphics software by Graph Pad to determine IC50 values by conventional means.
Displacement of [3H]-gabapentin from an alpha-2-delta receptor-1 or an alpha-2-delta receptor-2 by certain invention compounds is evidenced below in Table 2. In Table 2, the displacement was determined according to one of the above Biological Methods 4 or 6, and reported as an IC50 in micromolar concentration of invention compound in the columns labeled “A2DR1 IC50 (μM),” “A2DR2 IC50 […],” and “GABAPAA IC50 (μM),” respectively, for a reference compound, racemic octahydroisoindole-2-carboxylic acid (“OHIII2CA”) and certain invention compounds, which are referenced by Compound Example number in the column labeled “Compound Example No.”.

Data set [4] has as its target alpha-2-delta receptors, membrane from pig cortex (Sus scrofa, UniProt O77773). As to the kind of experiment: [3H]Gabapentin A2DR binding assay (GABAPAA / GABAP). To be noted: Biological Method 6, pig cortex membrane; read-out: GABAPAA IC50, displacement of [3H]-gabapentin. Here is the method:
In one version, the binding assay is set up in a 96-well format using deep-well polypropylene plates. In a total volume of 500 μL, the following additions are made: 250 μL buffer [10 mM N-2-hydroxyethylpiperazine-N′-2-ethanesulfonic acid (“HEPES”), pH 7.4], 25 μL [3H]gabapentin (10 nM final concentration), 200 μL thawed tissue membrane preparation from Step (1) (˜40 μg protein), and 25 μL of test compound at 7 test dilutions (for example, 0.001, 0.01, 0.03, 0.1, 0.3, 1.0, and 10 μM concentrations). Non-specific binding for each plate is determined by the addition of 10 μM of pregabalin instead of test compound in a few of the 96 wells. Following incubation for 45 minutes at 21° C., the contents of the wells are filtered under vacuum onto glass filter/B (“GF/B”) filter mats and then washed 4×1 mL with chilled 50 mM tris(hydroxymethyl)aminomethane (“Tris”) HCl, pH 6.9. The mats are placed into plastic pouches, scintillation cocktail is added, the pouches are sealed, and radioactivity for each sample is counted.
as §4
[^3H]Gabapentin A2DR Binding Assay (“GABAPAA” or “GABAP”) […]

For data set [5], the target named is leucine transport system (Cricetulus griseus, UniProt G3GRU9). As to the kind of experiment: Leucine transport system binding assay (LTSBA), [3H]leucine uptake in CHO K1 cells. In kind it is cell-based. The note with it: conclusion from Table 3. Here is the method: Leucine Transport System Binding Assay (“LTSBA”) The sodium-containing buffer for transport assay was phosphate buffered saline (“PBS”) consisting of 137 mM NaCl, 2.7 mM KCl, 10.6 mM Na2HPO4, and 1.5 mM KH2PO4. The sodium-free buffer had equimolar amounts of choline chloride and choline phosphate in place of NaCl and […], respectively. This buffer is referred to as PBC. Prior to use, both PBS and PBC buffers (pH 7.4) were supplemented with 5.6 mM D-glucose, 0.49 mM MgCl2, and 0.9 mM CaCl2 (GMC). For cultured monolayer cells (in general, CHO K1 cells), the cluster tray transport assay was used as described previously (Su et al, J. Neurochem., 1995; 64:2125-2131, and references therein). […] The initial transport rates were determined by measuring uptake of tracer [3H] […] Secondary analysis of the initial velocity kinetic curves were determined by non linear regression analysis, using the equation: log V=log {[Vmax.S/(Km+S)]+P.[S]} where V, S, Vmax, and Km have their conventional meanings, and P represents the first order rate constant describing the nonsaturable uptake. An IC50 was determined as percentage inhibition of saturable leucine uptake. […] They were calculated by subtracting the corresponding substrate uptake rates in the presence of 10 mM excess unlabeled leucine from the total uptake rates. […] The efflux was calculated as percentage of the intracellular labeled substrate at zero time. […]
Chain of leucine transport system (G3GRU9 entry or part of it): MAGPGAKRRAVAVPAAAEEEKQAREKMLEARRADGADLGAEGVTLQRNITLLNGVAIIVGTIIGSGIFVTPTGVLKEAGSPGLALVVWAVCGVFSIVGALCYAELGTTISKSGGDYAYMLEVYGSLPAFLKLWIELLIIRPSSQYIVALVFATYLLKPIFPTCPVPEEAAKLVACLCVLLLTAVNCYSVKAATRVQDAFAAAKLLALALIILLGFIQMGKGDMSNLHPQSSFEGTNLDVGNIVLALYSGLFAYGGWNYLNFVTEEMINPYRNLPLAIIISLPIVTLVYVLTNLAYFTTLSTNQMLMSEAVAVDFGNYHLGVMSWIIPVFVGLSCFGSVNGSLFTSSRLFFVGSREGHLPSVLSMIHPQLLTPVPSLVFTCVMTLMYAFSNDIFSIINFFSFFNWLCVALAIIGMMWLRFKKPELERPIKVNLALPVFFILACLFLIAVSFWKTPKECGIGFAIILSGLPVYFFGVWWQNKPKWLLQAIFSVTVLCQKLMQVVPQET
Chain of leucine transport system (A0A9J7CH39 entry or part of it, further chain): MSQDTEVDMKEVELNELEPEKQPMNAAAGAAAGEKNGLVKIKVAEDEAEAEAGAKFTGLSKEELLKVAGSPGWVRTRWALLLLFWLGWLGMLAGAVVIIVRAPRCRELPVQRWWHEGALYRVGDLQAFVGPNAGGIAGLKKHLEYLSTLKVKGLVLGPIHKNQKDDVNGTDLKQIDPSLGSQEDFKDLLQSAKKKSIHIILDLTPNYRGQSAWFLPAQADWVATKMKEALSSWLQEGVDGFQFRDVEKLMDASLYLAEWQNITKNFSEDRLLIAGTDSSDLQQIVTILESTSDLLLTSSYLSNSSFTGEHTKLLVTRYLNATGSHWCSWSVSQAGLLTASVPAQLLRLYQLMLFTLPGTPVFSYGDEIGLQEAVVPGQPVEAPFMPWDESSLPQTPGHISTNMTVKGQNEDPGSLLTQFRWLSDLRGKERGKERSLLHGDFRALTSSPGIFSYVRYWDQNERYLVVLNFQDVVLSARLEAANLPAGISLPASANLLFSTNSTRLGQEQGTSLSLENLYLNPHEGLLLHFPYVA

Chain of alpha-2-delta receptors, membrane from pig cortex (O77773 25-1091): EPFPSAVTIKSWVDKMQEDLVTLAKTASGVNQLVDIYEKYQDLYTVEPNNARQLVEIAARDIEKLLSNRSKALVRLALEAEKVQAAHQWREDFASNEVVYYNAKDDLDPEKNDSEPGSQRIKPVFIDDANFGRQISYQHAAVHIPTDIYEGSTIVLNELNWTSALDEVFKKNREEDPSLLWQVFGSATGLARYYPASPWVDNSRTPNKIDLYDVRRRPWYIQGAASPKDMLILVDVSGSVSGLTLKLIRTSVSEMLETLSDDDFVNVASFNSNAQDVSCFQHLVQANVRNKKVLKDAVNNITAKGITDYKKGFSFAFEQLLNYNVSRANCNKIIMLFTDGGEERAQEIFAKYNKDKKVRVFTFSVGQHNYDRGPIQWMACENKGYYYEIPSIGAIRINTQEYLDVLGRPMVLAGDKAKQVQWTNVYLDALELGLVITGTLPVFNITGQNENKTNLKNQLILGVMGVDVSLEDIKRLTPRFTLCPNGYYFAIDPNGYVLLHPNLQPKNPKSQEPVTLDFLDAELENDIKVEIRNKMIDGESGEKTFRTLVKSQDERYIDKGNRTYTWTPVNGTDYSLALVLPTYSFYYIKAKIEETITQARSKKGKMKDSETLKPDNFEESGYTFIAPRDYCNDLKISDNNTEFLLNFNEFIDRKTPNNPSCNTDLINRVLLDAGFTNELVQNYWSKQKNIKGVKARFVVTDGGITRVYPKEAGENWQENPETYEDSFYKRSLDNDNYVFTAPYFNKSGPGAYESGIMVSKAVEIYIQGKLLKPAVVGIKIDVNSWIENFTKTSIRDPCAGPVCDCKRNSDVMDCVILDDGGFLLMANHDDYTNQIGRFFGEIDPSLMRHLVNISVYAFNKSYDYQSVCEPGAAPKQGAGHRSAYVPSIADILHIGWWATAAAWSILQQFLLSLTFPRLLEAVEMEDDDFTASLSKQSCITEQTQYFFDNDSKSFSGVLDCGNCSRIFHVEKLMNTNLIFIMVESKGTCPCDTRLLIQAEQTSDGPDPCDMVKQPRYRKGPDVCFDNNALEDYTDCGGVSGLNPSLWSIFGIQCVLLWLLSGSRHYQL

Turning to `COC1CC2CNC(C(=O)O)C2CC1OC` (centres unmarked), the melting point is 235 to 241 °C (dec.). `O=C(O)C1NCC2C1CCC2(F)F` (centres unmarked): the melting point is 200 to 205 °C (dec.).

`O=C(O)[C@@H]1NC[C@@H]2[C@H]1[C@H]1CC[C@@H]2O1` (racemic) gave a melting point of 188 to 190 °C. Same read-out and setting: the figure for `O=C(O)[C@@]12CCCN1C[C@H]1CCCC[C@H]12` (racemic) (as salt: hydrochloride) is 250 to 255 °C.

Take `CC1(C)N[C@H](C(=O)O)[C@@H]2CCCC[C@H]21` (racemic) [Example B5]: the “% I @ 10 mg/kg/day (%) (± SEM): inhibition of loss of hind limb joint function in MIA at Day 14” value in data set [1] was 32%. Moreover, the concentration for half-maximal inhibition (IC50) in data set [2] and in data set [3] was ≥ 10 µM each time.

Turning to `O=C(O)N1CC2CCCCC2C1` (racemic) [OHII2CA, racemic octahydroisoindole-2-carboxylic acid], the IC50 in data set [4] turned out to be 30 nM. As for `CN1CC2CCCCC2C1(C)C(=O)O` (centres unmarked) [Example B1], the “% I @ 10 mg/kg/day (%) (± SEM): inhibition of loss of hind limb joint function in MIA at Day 14” value in data set [1] came to 32%. For the molecule `C[C@]1(C(=O)O)NC[C@H]2CCCC[C@H]21` [Example B2], in data set [1], the “% I @ 10 mg/kg/day (%) (± SEM): inhibition of loss of hind limb joint function in MIA at Day 14” value was −5%. For the same molecule, the IC50 in data set [2] and in data set [3] was ≥ 10 µM in each case. `CC12CCCCC1CNC2C(=O)O` (centres unmarked) [Example B4]: in data set [1], the “% I @ 10 mg/kg/day (%) (± SEM): inhibition of loss of hind limb joint function in MIA at Day 14” value stood at 13%.

In the case of `O=C(O)[C@@]12CCCN1C[C@H]1CCCC[C@H]12` [Example M1], the IC50 in data set [3] was ≥ 10 µM.

With `CN1C[C@H]2C3CCC(CC3)[C@H]2[C@@H]1C(=O)O` [Example R2], the “% I @ 10 mg/kg/day (%) (± SEM): inhibition of loss of hind limb joint function in MIA at Day 14” value in data set [1] is −20%. On the same count and under the same terms, the figure for `O=C(O)C1NCC2C3CCC(CC3)C12` (centres unmarked) [Example R3] is 20%. Regarding `Cl.O=C(O)N1CC2CCCCC2C1` (centres unmarked) [OHII2CA HCl, octahydroisoindole-2-carboxylic acid hydrochloride], the “binding to the leucine transport system (in words)” value in data set [5] is given as “weakly bind or do not bind”.

For orientation: melting point means the temperature of the solid-liquid transition. One may read the IC50 as the midpoint of a concentration-inhibition curve.
